Measurements as given in a melting point compilation (Tetko et al.; mined from patent text by program, amines drawn as free bases though some values may be those of a salt).

Structure (SMILES)	melting point [°C]
CC1(C)CCC(C)(C)c2cc(-c3cc(-c4ccc(C(=O)O)cc4)ccc3CCCO)ccc21	203
CCc1cc2[nH]c(=O)c(=O)[nH]c2cc1Cl	> 315
Cc1ccc(S(=O)(=O)OCC2Cc3c(C(F)(F)F)ccc(Cl)c3O2)cc1 (stereo not drawn)	89 to 92
COC(=O)c1sc2c(c1O)CSC2	133 to 137
CCOC(=O)c1c(C)nc2sc3c(c2c1OS(=O)(=O)C(F)(F)F)CCC1(C3)OCCO1	133 to 134
CCCCCCCCCCCC(=O)NCc1ccsc1	83 to 84
CC(=NO)C(C)(C)NCC(F)(F)CNC(C)(C)C(CCn1ccnc1[N+](=O)[O-])=NO	90 to 92
O=C(c1ccccc1)N1CCC(Nc2ccccc2Oc2ccc(Cl)cc2Cl)CC1	55 to 58
CC(C)(C)c1ccc(N)c([N+](=O)[O-])c1	107 to 108
CC1(C)CC(=C(c2ccc(O)cc2)c2ccc(-c3cccc(CO)c3)cc2)CC(C)(C)C1	197 to 198
O=C(Nc1ccc(Cl)cc1)NC1N=C(c2ccccc2)c2ccccc2-n2cnnc21 (stereo not drawn)	294 to 296
CC(C)(C)c1cc(C(C)(C)C)c(OP2OCCN2C(C)(C)C)c(C(C)(C)C)c1 (stereo not drawn)	73 to 74
COC(=O)c1csc(Cl)c1NC(C)=O	119 to 121
CC(C)CC(NC(=O)C(NC(=O)OCc1ccccc1)C(C)C)C(=O)NC(CCCCNC(=O)OCc1ccccc1)C(=O)Oc1cccc2ccccc12 (stereo not drawn)	171 to 174
NCc1cccc(O)c1	79 to 81
O=C1Cc2cc(O)cc(O)c2C2CCCCC12 (stereo not drawn)	220 to 223
CCN(CC)C(=O)n1nc(Oc2ncc(C(F)(F)F)cc2Cl)cc1C(F)(F)F	58 to 60
CC(CCCc1ccccc1)(C(=O)O)c1ccc(CCCNC(=O)c2ccc(-c3ccccn3)cc2)cc1 (stereo not drawn)	118 to 119
CC(C)(C)C1=CC(O)(c2ccc(F)cc2)C=C(C(C)(C)C)C1=O	123 to 125
CCCOc1ccc(S(=O)(=O)N2CCN(CC)CC2)cc1-c1nc2cc3ncn(Cc4ccccc4OC)c3cc2c(=O)[nH]1	180 to 182
O=C1OC(c2ccccc2)(c2ccccc2)C2CN(S(=O)(=O)c3ccccc3)CCN12 (stereo not drawn)	236 to 237
COc1cccc2c1C(=O)c1c(OC)cc(C(=O)N(C)OCc3ccccc3)cc1C2=O	170 to 171
CCCCC1(CCCC)C(=O)N(C(C)(C)C)CC(C)(C)N1OC(C)(C)C#N	68 to 74

Structure (SMILES)	melting point [°C]
CC(O)Cn1nc2c3c(ccc([N+](=O)[O-])c31)CCC2 (stereo not drawn)	144 to 146
CN(C)Cc1cccc(-c2cc3c(Nc4ccc(F)c(Cl)c4)ncnc3[nH]2)c1	218 to 220
CCC(=O)N1CCC(NC(=O)Nc2ccc(OC(F)(F)F)cc2)CC1	195 to 196
COc1ccc(C(=O)C(N=C=S)c2ccc(OC)cc2)cc1 (stereo not drawn)	155
Fc1c(Cl)cc(C(/C=C/c2ccc3[nH]ccc3c2)C(F)(F)F)cc1Cl (stereo not drawn)	133 to 139
Nc1ccc(S(=O)(=O)n2cc(CC3CCNCC3)c3cc(F)ccc32)cc1	162 to 164
CCCN(C1=C(O)CC(CCc2ccc(O)cc2)(C2CCCC2)OC1=O)c1ccccc1 (stereo not drawn)	95
O=[N+]([O-])c1ccc(C=C(Cl)Cl)o1	74 to 75
CCCCN1CCC(C(=O)O)(S(=O)(=O)c2ccc(OC)cc2)CC1	206
O=c1[nH]c2cc(Cl)ccc2c(O)c1-c1ccc2ccccc2c1	> 350
CCCCC1(CCCC)CCc2c(O)cccc2C1O (stereo not drawn)	82 to 83
COc1cccc2c1CC(C#N)CC2 (stereo not drawn)	66 to 68
CCOC(=O)c1ccc(CCN2CCN(C(=O)CCc3cc(C(C)(C)C)c(O)c(C(C)(C)C)c3)CC2)cc1	105 to 107
CCCCC(=NO)C(=O)OCC	43.2 to 46.8
CN(Cc1ccccc1)CC1CNC(=O)c2cccc3[nH]cc1c23 (stereo not drawn)	191 to 193
CN1CCN(c2ccc(S(=O)(=O)c3ccc(F)cc3)c(N)c2)CC1	85 to 89
OCc1ccc(OCCCCCSc2ccnc3cc(C(F)(F)F)ccc23)cc1	98.3
Nc1cccc2c1C(=O)N(c1ccc(OC(F)(F)F)cc1)C2=O	161 to 162
CC(C)(C)NCC(O)c1cccc(C#N)c1F (stereo not drawn)	88 to 90
CCCc1c(O)c(O)c(C(=O)O)c2cc(C)c(C)cc12	170 to 172
COC(=O)CC[C@H](NC(=O)CCC#Cc1cnc2nc(NC(=O)C(C)(C)C)nc(O)c2c1)C(=O)OC	162 to 163
C=CCn1c(=O)n(CC=C)c(=O)n(-c2cc(N3C(=O)C4=C(CCCC4)C3=O)c(F)cc2Cl)c1=O	80 to 85
CCOCc1nc2c(N)nc(C)c(C)c2n1NCc1cccnc1	147 to 149

Structure (SMILES)	melting point [°C]
COc1ccc(-c2cncc(OC3SCC(O)C(O)C3O)c2)cc1Cl (stereo not drawn)	165
c1ccc2c(c1)OP(N(C1CCCCC1)C1CCCCC1)c1ccccc1-2 (stereo not drawn)	162
O=C1CCC(c2cccc(F)c2)(c2cccc(F)c2)[C@@H]2CN(Cc3ccccc3)C[C@H]12 (racemic)	124
CC(=O)n1cc(C2=CCN(CCCN3c4cccc5cccc(c45)S3(=O)=O)CC2)c2ccccc21	163
O=[N+]([O-])c1ccc(-c2ccc(OCCCCCCO)cc2)cc1	117 to 119
CCOC(=O)CCNC(=O)c1cn2nc(NCCCN3CCC(OC(c4ccccc4)c4ccccc4)CC3)ccc2n1	83 to 86
CS(=O)(=O)N1CCC(Nc2nc(CCC(F)(F)F)nc(Nc3ccc(F)c(Cl)c3)n2)CC1	192 to 193
COc1ccc2c(c1)CCC1C2CCC2(C)C(=O)CC(C(C)C)C12 (stereo not drawn)	104 to 108
CCCc1c(C(OC)OC)cc([N+](=O)[O-])c(OC)c1OC	52.1 to 54
CC(c1oc2ccccc2c(=O)c1-c1cccc(F)c1)n1nc(-c2ccc3cn[nH]c3c2)c2c(N)ncnc21 (stereo not drawn)	206 to 208
CCc1ncnc(NC(C)c2ccc([Si](C)(C)C)cc2)c1Cl (stereo not drawn)	79 to 80
CCc1nc(N)nc(N)c1-c1ccc(NCc2ccccc2)c([N+](=O)[O-])c1	253 to 255
Cc1nccn1-c1nc(-c2ccc(Cl)cc2)c(CCCO)o1	128 to 129
CN(C)C(=O)C1N=C(c2ccccc2)c2cc(Cl)ccc2NC1=O (stereo not drawn)	297
CN1C2CCC1CN(c1ccc(C#Cc3ccc(N)cc3)nn1)C2	204 to 210
Cc1c(Nc2cc(-c3cccc(C4NCCc5c4sc4c5CC(C)(C)C4)c3CO)cn(C)c2=O)cnn1C (stereo not drawn)	164 to 165
C#Cc1ccc(C23OCC(c4ccc(F)c(F)c4)(CO2)CO3)cc1	204 to 205
COC(=O)CC[C@@H](Cc1cn(CCCc2ccccc2)c2ccccc12)NC(=O)CCCCCCc1ccccc1	79.4 to 81
Cc1cccc2nc(CSc3ncnc4[nH]cnc34)n(-c3ccccc3Cl)c(=O)c12	228 to 230
CCOC(=NC(=O)c1cccc2ccccc12)c1ccc(Br)cc1	104 to 105
CCN1CC2CCCC2C1CNC(=O)c1cc(Cl)c(N)cc1OC (stereo not drawn)	128 to 129
CC(C)(C)NCC(=O)NCCn1ccc2ncnc(Nc3ccc(Oc4cccc5sncc45)c(Cl)c3)c21	178 to 180

Results, then the compound that gave them:

melting point [°C]	Structure (SMILES)
174 to 178	O=C1c2c(Br)cccc2S(=O)(=O)N1CSc1ccccc1
252 to 254	Cc1ncc2cc(-c3ccc(F)cc3)c(N)nc2n1
180	O=C(Cn1c(=O)sc2ccc(Cl)cc21)N1CCC(O)CC1
261 to 263	CCNCC1CCN(c2c(F)cc3c(=O)c(C(=O)O)cn(C4(C)CC4)c3c2F)C1 (stereo not drawn)
271 to 272	CSc1ccc2ncn(/C=C/C(=O)O)c(=O)c2c1
169 to 171	CCn1c(=O)ccc2cnc(Nc3ccc(OCCOC)cc3)nc21
93 to 94	CCOC(=O)c1cccc(C)c1S(N)(=O)=O
298	COc1cc(C(=O)O)c(-n2c3ccccc3c3ccccc32)cc1C(=O)O
130 to 132	O=C(CCCCCN1C(=O)c2ccc([N+](=O)[O-])cc2C1=O)NO
166 to 169	CC(C)Cn1c(=O)n(C)c(=O)c2c(SC(C)C)c(C(=O)c3nc4ccccc4n3C)sc21
182 to 183	COC(=O)C(=Cc1c[nH]c2cc(C)ccc12)NC(C)=O
220 to 225	O=C(O)c1cn(CCc2ccc(Cl)cc2)c2cc(C3CC3)nn2c1=O
107 to 109	CCCC(=O)c1cnc2ccccc2c1Nc1ccccc1C
98 to 100	O=C(O)C=C1CCCCC1Cc1ccccc1 (racemic)
162 to 165	CCC(=O)Nc1c(-c2c(F)cc(F)cc2F)c(Cl)nc2ncnn12
118	CCN(CC)C(=O)c1nn(-c2ccc(OC(F)(F)F)cc2)c2cccc(F)c2c1=O
175 to 177	Cc1nccn1CCCNC(=O)c1ccc(Cl)nc1
199 to 201	C=C(C)C(=O)Nc1ccc(O)c(-n2nc3ccc(OC)cc3n2)c1
138 to 139	COC(=O)c1nc(-c2ccc(CO)cc2)cc(N)c1Cl
303 to 308	O=C(Nc1ccc(-c2c[nH]c(=O)cn2)cc1)c1ccncc1
203 to 204	CSc1ccc2nc[nH]c(=O)c2c1
252 to 254	CNC(=O)c1cn(C)c(=O)cc1Nc1ccc(I)cc1F
98 to 99	CCC(=O)N[C@@H]1Cc2ccccc2N(OC)C1=O
190 to 193	COC(=O)c1c(Cc2ccc(C(=O)CO)cc2)c(=O)c2ccc(C)nc2n1-c1ccccc1
134 to 135	O=C(O)C1(O)CCc2ccccc2C1 (single isomer, unassigned; (-))
119 to 122	CCCc1ccc(-n2nc(Cl)cc2-c2ccc(S(C)(=O)=O)cc2)cc1Cl
190	Cc1cc2c(NC(=S)N3Cc4ccsc4CC3CO)cccc2cn1 (racemic)
109 to 112	O=C1CC(O)CC(/C=C/c2c(Cl)cc(Cl)cc2OCc2ccccc2)O1 (stereo not drawn)
105 to 107	COc1ccc(C(=O)/C(=C\c2ccccc2)C(=O)OC(C)(C)C)c(O)c1
112 to 114	CCOC(=O)c1cnn(-c2ccccn2)c1C#N
